Source: US10988523B2, “Modified lipidated Relaxin B chain peptides and their therapeutic use” (Sanofi, priority 2018, dated 2021)
*1 amine or outer side, *2 acyl side, *3 side chain or, on linkers, in order; H or OH if unused. Where a SMILES comes first, the peptide text is derived from it. Side-chain parts run from the residue outwards. [ ]: non-standard residue; d: D form. The star is where a group is joined. PEG28 = NCCOCCOCCOCCOCCOCCOCCOCCOCCOCCOCCOCCOCCOCCOCCOCCOCCOCCOCCOCCOCCOCCOCCOCCOCCOCCOCCOCCOCCC(=O)O; PEG24 = NCCOCCOCCOCCOCCOCCOCCOCCOCCOCCOCCOCCOCCOCCOCCOCCOCCOCCOCCOCCOCCOCCOCCOCCOCCC(=O)O; PEG12 = NCCOCCOCCOCCOCCOCCOCCOCCOCCOCCOCCOCCOCCC(=O)O; γGlu = O=C(O)[C@H](CCC(=O)[*:2])N[*:1]; 1Nal = N[C@@H](Cc1cccc2ccccc12)C(=O)O; Arg(Me) = CNC(=N)NCCC[C@H](N)C(=O)O; Stearoyl = CCCCCCCCCCCCCCCCCC(=O)*; Palmitoyl = CCCCCCCCCCCCCCCC(=O)*; Nle = CCCC[C@H](N)C(=O)O; AEEA = NCCOCCOCC(=O)O; Aib = CC(C)(N)C(=O)O

Molecular target: T1, RXFP1 (Homo sapiens, UniProt Q9HBX9)
T1 construct: OVCAR5 cells expressing endogenous RXFP1; endogenous in cells; host or cells: OVCAR5 cells
T1 sequence (Q9HBX9 1-757): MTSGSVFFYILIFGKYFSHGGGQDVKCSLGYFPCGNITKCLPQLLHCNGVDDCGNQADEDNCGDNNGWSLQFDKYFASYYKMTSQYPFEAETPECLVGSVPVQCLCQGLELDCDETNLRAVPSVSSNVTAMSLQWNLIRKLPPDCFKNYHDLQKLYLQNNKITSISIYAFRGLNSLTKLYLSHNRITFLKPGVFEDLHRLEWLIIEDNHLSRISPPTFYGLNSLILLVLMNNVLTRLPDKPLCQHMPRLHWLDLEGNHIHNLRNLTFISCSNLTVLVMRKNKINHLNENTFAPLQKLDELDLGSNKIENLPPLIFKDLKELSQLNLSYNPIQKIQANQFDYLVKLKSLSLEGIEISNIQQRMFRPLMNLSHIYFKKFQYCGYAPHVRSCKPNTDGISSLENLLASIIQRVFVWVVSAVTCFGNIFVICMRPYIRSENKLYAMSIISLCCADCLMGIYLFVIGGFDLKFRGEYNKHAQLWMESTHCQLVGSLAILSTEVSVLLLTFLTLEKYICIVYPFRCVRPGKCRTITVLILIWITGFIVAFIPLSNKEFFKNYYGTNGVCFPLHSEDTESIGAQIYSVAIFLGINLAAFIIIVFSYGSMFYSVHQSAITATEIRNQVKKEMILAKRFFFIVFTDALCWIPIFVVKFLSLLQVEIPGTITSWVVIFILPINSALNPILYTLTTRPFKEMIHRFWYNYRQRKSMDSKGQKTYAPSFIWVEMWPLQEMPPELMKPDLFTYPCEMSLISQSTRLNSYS
Test: OVCAR5 cAMP assay (HTRF), RXFP1 agonist activity
Format: cell-based
Settings: for EC50: OVCAR5 cells, cAMP HTRF, read-out: EC50 (nM), OVCAR 5 cells (cAMP); for Emax: OVCAR-5, maximal cAMP relative to H2-relaxin maximum (100%), read-out: EMax, OVCAR 5 cells (cAMP)
How it was run: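 OVCAR5 cells (endogenous RXFP1) pretreated 40 min at 37° C with 1 mM IBMX, then exposed to peptides in serum-free medium for 30 min at 37° C. Lysate cAMP read by HTRF; EC50 from variable-slope sigmoidal fit; Emax as % of H2-relaxin maximal cAMP in same run.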

Row | Structure (SMILES) | EC50 | Emax
1 | CCCCCCCCCCCCCCCCCC(=O)NCCOCCOCC(=O)NCCOCCOCC(=O)NCCCC[C@H](NC(=O)[C@H](CCCCNC(C)=O)NC(=O)[C@H](CCCCN)NC(=O)[C@H](CCCNC(=N)N)NC(=O)C(C)(C)NC(=O)[C@H](CO)NC(=O)[C@H](Cc1c[nH]c2ccccc12)NC(=O)[C@@H](NC(=O)[C@H](CO)NC(=O)[C@H](CCCC)NC(=O)CNC(=O)[C@H](CCC(=O)O)NC(=O)C(C)(C)NC(=O)C(C)(C)NC(=O)[C@@H](NC(=O)[C@H](CCC(N)=O)NC(=O)[C@H](C)NC(=O)[C@H](CCCNC(=N)N)NC(=O)[C@@H](NC(=O)[C@H](CCCCN)NC(=O)[C@H](CCC(=O)O)NC(=O)[C@H](CCCNC(=N)N)NC(=O)CNC(=O)[C@H](CCC(=O)O)NC(=O)[C@H](CC(C)C)NC(C)=O)C(C)C)[C@@H](C)CC)[C@@H](C)O)C(N)=O [compound 51] (Ac-LEGREKVRAQI[Aib][Aib]EG[Nle]STWS[Aib]RKK(Ac)K([AEEA-AEEA-Stearoyl])-NH2) |  | 100%
2 | CCCCCCCCCCCCCCCC(=O)N[C@@H](CCC(=O)N[C@@H](CCC(=O)N[C@@H](CCC(=O)NCCCC[C@H](NC(=O)CCOCCOCCOCCOCCOCCOCCOCCOCCOCCOCCOCCOCCNC(=O)[C@H](CCCCNC(C)=O)NC(=O)[C@H](CCCCN)NC(=O)[C@H](CCCNC(=N)N)NC(=O)C(C)(C)NC(=O)[C@H](CO)NC(=O)[C@H](Cc1c[nH]c2ccccc12)NC(=O)[C@@H](NC(=O)[C@H](CO)NC(=O)[C@H](CCCC)NC(=O)CNC(=O)[C@H](CCC(=O)O)NC(=O)C(C)(C)NC(=O)C(C)(C)NC(=O)[C@@H](NC(=O)[C@H](CCC(N)=O)NC(=O)C(C)(C)NC(=O)[C@H](CCCNC(=N)N)NC(=O)[C@@H](NC(=O)[C@H](CCCCN)NC(=O)[C@H](CCC(=O)O)NC(=O)[C@H](CCCNC(=N)N)NC(=O)CNC(=O)[C@H](CCC(=O)O)NC(=O)[C@H](CC(C)C)NC(C)=O)C(C)C)[C@@H](C)CC)[C@@H](C)O)C(N)=O)C(=O)O)C(=O)O)C(=O)O [compound 28] (Ac-LEGREKVR[Aib]QI[Aib][Aib]EG[Nle]STWS[Aib]RKK(Ac)[PEG12]K([γGlu-γGlu-γGlu-Palmitoyl])-NH2) |  | 78%
3 | CCCCCCCCCCCCCCCCCC(=O)N[C@@H](CCC(=O)N[C@@H](CCC(=O)N[C@@H](CCC(=O)NCCCC[C@H](NC(=O)CCOCCOCCOCCOCCOCCOCCOCCOCCOCCOCCOCCOCCOCCOCCOCCOCCOCCOCCOCCOCCOCCOCCOCCOCCOCCOCCOCCOCCNC(=O)[C@H](CCCCN)NC(=O)[C@H](CCCCN)NC(=O)[C@H](CCCNC(=N)N)NC(=O)C(C)(C)NC(=O)[C@H](CO)NC(=O)[C@H](Cc1c[nH]c2ccccc12)NC(=O)[C@@H](NC(=O)[C@H](CO)NC(=O)[C@H](CCCC)NC(=O)CNC(=O)[C@H](CCC(=O)O)NC(=O)C(C)(C)NC(=O)C(C)(C)NC(=O)[C@@H](NC(=O)[C@H](CCCCNC(C)=O)NC(=O)[C@H](C)NC(=O)[C@H](CCCNC(=N)N)NC(=O)[C@@H](NC(=O)[C@H](CCCCN)NC(=O)[C@H](CCC(=O)O)NC(=O)[C@H](CCCNC(=N)N)NC(=O)CNC(=O)[C@H](CCC(=O)O)NC(=O)[C@H](CC(C)C)NC(C)=O)C(C)C)[C@@H](C)CC)[C@@H](C)O)C(N)=O)C(=O)O)C(=O)O)C(=O)O [compound 48] (Ac-LEGREKVRAK(Ac)I[Aib][Aib]EG[Nle]STWS[Aib]RKK[PEG28]K([γGlu-γGlu-γGlu-Stearoyl])-NH2) |  | 99%
4 | CCCCCCCCCCCCCCCC(=O)N[C@@H](CCC(=O)N[C@@H](CCC(=O)N[C@@H](CCC(=O)NCCCC[C@H](NC(=O)CCOCCOCCOCCOCCOCCOCCOCCOCCOCCOCCOCCOCCOCCOCCOCCOCCOCCOCCOCCOCCOCCOCCOCCOCCNC(=O)[C@H](CCCCN)NC(=O)[C@H](CCCNC(=N)N)NC(=O)C(C)(C)NC(=O)[C@H](CO)NC(=O)[C@H](Cc1c[nH]c2ccccc12)NC(=O)[C@@H](NC(=O)[C@H](CO)NC(=O)[C@H](CCSC)NC(=O)CNC(=O)[C@H](CCC(=O)O)NC(=O)C(C)(C)NC(=O)C(C)(C)NC(=O)[C@@H](NC(=O)[C@H](CCC(N)=O)NC(=O)[C@H](C)NC(=O)[C@H](CCCNC(=N)N)NC(=O)[C@@H](NC(=O)[C@H](CCCCN)NC(=O)[C@H](CCC(=O)O)NC(=O)[C@H](CCCNC(=N)N)NC(=O)CNC(=O)[C@H](CCC(=O)O)NC(=O)[C@H](CC(C)C)NC(C)=O)C(C)C)[C@@H](C)CC)[C@@H](C)O)C(N)=O)C(=O)O)C(=O)O)C(=O)O [compound 47] (Ac-LEGREKVRAQI[Aib][Aib]EGMSTWS[Aib]RK[PEG24]K([γGlu-γGlu-γGlu-Palmitoyl])-NH2) |  | 100%

Further lines, results first:

Row | EC50 | Emax | Structure (SMILES)
5 | 0.09 nM | 76% | CCCCCCCCCCCCCCCCCC(=O)N[C@@H](CCC(=O)N[C@@H](CCC(=O)N[C@@H](CCC(=O)NCCOCCOCC(=O)NCCOCCOCC(=O)NCCOCCOCC(=O)NCCCC[C@H](NC(=O)[C@H](CCCCNC(C)=O)NC(=O)[C@H](CCCCN)NC(=O)[C@H](CCCNC(=N)N)NC(=O)C(C)(C)NC(=O)[C@H](CO)NC(=O)[C@H](Cc1cccc2ccccc12)NC(=O)[C@@H](NC(=O)[C@H](CO)NC(=O)[C@H](CCCC)NC(=O)CNC(=O)[C@H](CCC(=O)O)NC(=O)C(C)(C)NC(=O)C(C)(C)NC(=O)[C@@H](NC(=O)[C@H](CCCCNC(C)=O)NC(=O)[C@H](C)NC(=O)[C@H](CCCNC(=N)N)NC(=O)[C@@H](NC(=O)[C@H](CCCCN)NC(=O)[C@H](CCC(=O)O)NC(=O)[C@H](CCCNC(=N)N)NC(=O)CNC(=O)[C@H](CCC(=O)O)NC(=O)[C@H](CC(C)C)NC(C)=O)C(C)C)[C@@H](C)CC)[C@@H](C)O)C(N)=O)C(=O)O)C(=O)O)C(=O)O [compound 84] (Ac-LEGREKVRAK(Ac)I[Aib][Aib]EG[Nle]ST[1Nal]S[Aib]RKK(Ac)K([AEEA-AEEA-AEEA-γGlu-γGlu-γGlu-Stearoyl])-NH2)
6 | 0.01 nM | 83% | CCCCCCCCCCCCCCCCCC(=O)N[C@@H](CCC(=O)N[C@@H](CCC(=O)N[C@@H](CCC(=O)NCCOCCOCC(=O)NCCOCCOCC(=O)NCCOCCOCC(=O)NCCCC[C@H](NC(=O)[C@H](CCCCNC(C)=O)NC(=O)[C@H](CCCCN)NC(=O)[C@H](CCCNC(=N)NC)NC(=O)C(C)(C)NC(=O)[C@H](CO)NC(=O)[C@H](Cc1c[nH]c2ccccc12)NC(=O)[C@@H](NC(=O)[C@H](CO)NC(=O)[C@H](CCCC)NC(=O)CNC(=O)[C@H](CCC(=O)O)NC(=O)C(C)(C)NC(=O)C(C)(C)NC(=O)[C@@H](NC(=O)[C@H](CCCCNC(C)=O)NC(=O)[C@H](C)NC(=O)[C@H](CCCNC(=N)N)NC(=O)[C@@H](NC(=O)[C@H](CCCCN)NC(=O)[C@H](CCC(=O)O)NC(=O)[C@H](CCCNC(=N)N)NC(=O)CNC(=O)[C@H](CCC(=O)O)NC(=O)[C@H](CC(C)C)NC(C)=O)C(C)C)[C@@H](C)CC)[C@@H](C)O)C(N)=O)C(=O)O)C(=O)O)C(=O)O [compound 133] (Ac-LEGREKVRAK(Ac)I[Aib][Aib]EG[Nle]STWS[Aib][Arg(Me)]KK(Ac)K([AEEA-AEEA-AEEA-γGlu-γGlu-γGlu-Stearoyl])-NH2)
7 | 0.2 nM | 81% | CCCCCCCCCCCCCCCC(=O)N[C@@H](CCC(=O)N[C@@H](CCC(=O)N[C@@H](CCC(=O)NCCOCCOCC(=O)NCCOCCOCC(=O)NCCOCCOCC(=O)NCCOCCOCC(=O)NCCCC[C@H](NC(=O)[C@H](CCCCNC(C)=O)NC(=O)[C@H](CCCCN)NC(=O)[C@H](CCCNC(=N)N)NC(=O)C(C)(C)NC(=O)[C@H](CO)NC(=O)[C@H](Cc1c[nH]c2ccccc12)NC(=O)[C@@H](NC(=O)[C@H](CO)NC(=O)[C@H](CCCC)NC(=O)CNC(=O)[C@H](CCC(=O)O)NC(=O)C(C)(C)NC(=O)C(C)(C)NC(=O)[C@@H](NC(=O)[C@H](CCCCNC(C)=O)NC(=O)[C@H](C)NC(=O)[C@H](CCCNC(=N)N)NC(=O)[C@@H](NC(=O)[C@H](CCCCN)NC(=O)[C@H](CCC(=O)O)NC(=O)[C@H](CCCNC(=N)N)NC(=O)CNC(=O)[C@H](CCC(=O)O)NC(=O)[C@H](CC(C)C)NC(C)=O)C(C)C)[C@@H](C)CC)[C@@H](C)O)C(N)=O)C(=O)O)C(=O)O)C(=O)O [compound 64] (Ac-LEGREKVRAK(Ac)I[Aib][Aib]EG[Nle]STWS[Aib]RKK(Ac)K([AEEA-AEEA-AEEA-AEEA-γGlu-γGlu-γGlu-Palmitoyl])-NH2)
8 |  | 92% | CCCCCCCCCCCCCCCCCC(=O)N[C@@H](CCC(=O)N[C@@H](CCC(=O)N[C@@H](CCC(=O)NCCOCCOCC(=O)NCCOCCOCC(=O)NCCOCCOCC(=O)NCCCC[C@H](NC(=O)[C@H](CCCCN)NC(=O)[C@H](CCCNC(=N)N)NC(=O)C(C)(C)NC(=O)[C@H](CO)NC(=O)[C@H](Cc1c[nH]c2ccccc12)NC(=O)[C@@H](NC(=O)[C@H](CO)NC(=O)[C@H](CCCC)NC(=O)CNC(=O)[C@H](CCC(=O)O)NC(=O)C(C)(C)NC(=O)C(C)(C)NC(=O)[C@@H](NC(=O)[C@H](CCCCNC(C)=O)NC(=O)[C@H](C)NC(=O)[C@H](CCCNC(=N)N)NC(=O)[C@@H](NC(=O)[C@H](CCCCN)NC(=O)[C@H](CCC(=O)O)NC(=O)[C@H](CCCNC(=N)N)NC(=O)CNC(=O)[C@H](CCC(=O)O)NC(=O)[C@H](CC(C)C)NC(C)=O)C(C)C)[C@@H](C)CC)[C@@H](C)O)C(N)=O)C(=O)O)C(=O)O)C(=O)O [compound 83] (Ac-LEGREKVRAK(Ac)I[Aib][Aib]EG[Nle]STWS[Aib]RKK([AEEA-AEEA-AEEA-γGlu-γGlu-γGlu-Stearoyl])-NH2)
